Measurements taken from patent publication US20150252047A1, “SUBSTITUTED INDAZOL-PYRROLOPYRIMIDINES USEFUL IN THE TREATMENT OF HYPERPROLIFERATIVE DISEASES” (BAYER PHARMA AKTIENGESELLSCHAFT, priority 2012, published 2015).

The compounds below were run against T1, human full-length MKNK1 (Homo sapiens, UniProt Q9BUB5, T385D) (assay: MKNK1 kinase high ATP assay (TR-FRET)). Details: high ATP (2 mM final), 15 min preincubation with enzyme, 30 min reaction at 22° C.
T1 construct: GST (N); purchased Carna Biosciences 02-145; host or cells: insect cells (baculovirus expression system)
Assay type: biochemical
Procedure: MKNK1-inhibitory activity at high ATP of compounds of the present invention after their preincubation with MKNK1 was quantified employing the TR-FRET-based MKNK1 high ATP assay as described in the following paragraphs.
A recombinant fusion protein of Glutathione-S-Transferase (GST, N-terminally) and human full-length MKNK1 (amino acids 1-424 and T344D of accession number BAA 19885.1), expressed in insect cells using baculovirus expression system and purified via glutathione sepharose affinity chromatography, was purchased from Carna Biosciences (product no 02-145) and used as enzyme. As substrate for the kinase reaction the biotinylated peptide biotin-Ahx-IKKRKLTRRKSLKG (C-terminus in amide form) was used, which can be purchased e.g. from the company Biosyntan (Berlin-Buch, Germany).
For the assay 50 nL of a 100 fold concentrated solution of the test compound in DMSO was pipetted into a black low volume 384 well microtiter plate (Greiner Bio-One, Frickenhausen, Germany), 2 μL of a solution of MKNK1 in aqueous assay buffer [50 mM HEPES pH 7.5, 5 mM MgCl2, 1.0 mM dithiothreitol, 0.005% (v/v) Nonidet-P40 (Sigma)] was added and the mixture was incubated for 15 min at 22° C. to allow pre-binding of the test compounds to the enzyme before the start of the kinase reaction. Then the kinase reaction was started by the addition of 3 μL of a solution of adenosine-tri-phosphate (ATP, 3.3 mM=>final conc. in the 5 μL assay volume is 2 mM) and substrate (0.1 μM=>final conc. in the 5 μL assay volume is 0.06 μM) in assay buffer and the resulting mixture was incubated for a reaction time of 30 min at 22° C. The concentration of MKNK1 was adjusted depending of the activity of the enzyme lot and was chosen appropriate to have the assay in the linear range, typical concentrations were in the range of 0.003 μg/mL. The reaction was stopped by the addition of 5 μL of a solution of TR-FRET detection reagents (5 nM streptavidine-XL665 [Cisbio Bioassays, Codolet, France] and 1 nM anti-ribosomal protein S6 (pSer236)-antibody from Invitrogen [#44921G] and 1 nM LANCE EU-W1024 Labeled ProteinG [Perkin-Elmer, product no. AD0071]) in an aqueous EDTA-solution (100 mM EDTA, 0.1% (w/v) bovine serum albumin in 50 mM HEPES pH 7.5).
The resulting mixture was incubated for 1 h at 22° C. to allow the formation of complex between the phosphorylated biotinylated peptide and the detection reagents. Subsequently the amount of phosphorylated substrate was evaluated by measurement of the resonance energy transfer from the Eu-chelate to the streptavidine-XL. Therefore, the fluorescence emissions at 620 nm and 665 nm after excitation at 350 nm were measured in a TR-FRET reader, e.g. a Rubystar (BMG Labtechnologies, Offenburg, Germany) or a Viewlux (Perkin-Elmer). The ratio of the emissions at 665 nm and at […] was taken as the measure for the amount of phosphorylated substrate. The data were normalised (enzyme reaction without inhibitor=0% inhibition, all other assay components but no enzyme=100% inhibition).

T1 sequence (Q9BUB5 1-424 isoform Q9BUB5-2 T344D): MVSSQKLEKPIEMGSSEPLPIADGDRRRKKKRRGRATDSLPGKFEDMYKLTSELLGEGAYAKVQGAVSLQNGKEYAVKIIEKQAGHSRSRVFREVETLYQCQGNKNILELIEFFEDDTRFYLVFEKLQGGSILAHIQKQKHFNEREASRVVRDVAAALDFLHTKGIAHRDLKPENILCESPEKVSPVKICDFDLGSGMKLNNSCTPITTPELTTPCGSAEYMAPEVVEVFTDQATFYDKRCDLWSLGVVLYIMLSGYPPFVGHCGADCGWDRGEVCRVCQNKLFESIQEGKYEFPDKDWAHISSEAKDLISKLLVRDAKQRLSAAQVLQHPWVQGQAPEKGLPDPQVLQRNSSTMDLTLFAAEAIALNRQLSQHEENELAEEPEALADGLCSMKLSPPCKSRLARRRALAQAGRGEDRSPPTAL

IC50 [nM] | Structure (SMILES)
3 | CCOc1cc2[nH]ncc2cc1Nc1ncnc2[nH]c(CC)c(C)c12 [Example 44, N-(6-Ethoxy-1H-indazol-5-yl)-6-ethyl-5-methyl-7H-pyrrolo[2,3-d]pyrimidin-4-amine]
26 | CC(C)Oc1cc2[nH]ncc2cc1Nc1ncnc2[nH]ccc12 [Example 24, N-[6-(Propan-2-yloxy)-1H-indazol-5-yl]-7H-pyrrolo[2,3-d]pyrimidin-4-amine]
17 | COc1cc2[nH]ncc2cc1Nc1ncnc2[nH]ccc12 [Example 2, N-(6-methoxy-1H-indazol-5-yl)-7H-pyrrolo[2,3-d]pyrimidin-4-amine]
179 | FC(F)(F)c1n[nH]c2ccc(Nc3ncnc4[nH]ccc34)cc12 [Example 7, N-[3-(trifluoromethyl)-1H-indazol-5-yl]-7H-pyrrolo[2,3-d]pyrimidin-4-amine]
6 | COc1cc2[nH]ncc2cc1Nc1ncnc2[nH]c(S(C)(=O)=O)cc12 [Example 21, N-(6-Methoxy-1H-indazol-5-yl)-6-(methylsulfonyl)-7H-pyrrolo[2,3-d]pyrimidin-4-amine]
1 | CCc1c[nH]c2ncnc(Nc3cc4cn[nH]c4cc3OC)c12 [Example 57, 5-Ethyl-N-(6-methoxy-1H-indazol-5-yl)-7H-pyrrolo[2,3-d]pyrimidin-4-amine]
1340 | N#Cc1n[nH]c2ccc(Nc3ncnc4[nH]ccc34)cc12 [Example 43, 5-(7H-Pyrrolo[2,3-d]pyrimidin-4-ylamino)-1H-indazole-3-carbonitrile]
3 | CCc1[nH]c2ncnc(Nc3cc4cn[nH]c4cc3OC(C)C)c2c1C [Example 27, 6-Ethyl-5-methyl-N-[6-(propan-2-yloxy)-1H-indazol-5-yl]-7H-pyrrolo[2,3-d]pyrimidin-4-amine]
2 | CC(C)Oc1cc2[nH]ncc2cc1Nc1ncnc2[nH]c(S(=O)(=O)c3ccccc3)cc12 [Example 52, 6-(Phenylsulfonyl)-N-[6-(propan-2-yloxy)-1H-indazol-5-yl]-7H-pyrrolo[2,3-d]pyrimidin-4-amine]
14 | COc1cc2[nH]ncc2cc1Nc1ncnc2[nH]c(C(=O)NCC(=O)N(C)C)c(Br)c12 [Example 68, 5-Bromo-N-[2-(dimethylamino)-2-oxoethyl]-4-[(6-methoxy-1H-indazol-5-yl)amino]-7H-pyrrolo[2,3-d]pyrimidine-6-carboxamide]
4 | COc1cc2[nH]ncc2cc1Nc1ncnc2[nH]c(C(=O)N(C)CCN(C)Cc3ccccc3)c(Br)c12 [Example 62, N-{2-[Benzyl(methyl)amino]ethyl}-5-bromo-4-[(6-methoxy-1H-indazol-5-yl)amino]-N-methyl-7H-pyrrolo[2,3-d]pyrimidine-6-carboxamide]
74 | Cc1cc2[nH]ncc2cc1Nc1ncnc2[nH]cc(F)c12 [Example 11, 5-Fluoro-N-(6-methyl-1H-indazol-5-yl)-7H-pyrrolo[2,3-d]pyrimidin-4-amine]
184 | CC(C)Oc1cc2[nH]ncc2cc1Nc1ncnc2[nH]cc(C(=O)O)c12 [Example 28, 4-{[6-(Propan-2-yloxy)-1H-indazol-5-yl]amino}-7H-pyrrolo[2,3-d]pyrimidine-5-carboxylic acid]
23 | COc1cc2[nH]ncc2cc1Nc1ncnc2[nH]c(C)cc12 [Example 37, N-(6-Methoxy-1H-indazol-5-yl)-6-methyl-7H-pyrrolo[2,3-d]pyrimidin-4-amine]
5 | CC(C)Oc1cc2[nH]ncc2cc1Nc1ncnc2[nH]cc(F)c12 [Example 25, 5-Fluoro-N-[6-(propan-2-yloxy)-1H-indazol-5-yl]-7H-pyrrolo[2,3-d]pyrimidin-4-amine]
1 | COc1cc2[nH]ncc2cc1Nc1ncnc2[nH]c(CC(C)C)c(C(C)C)c12 [Example 56, N-(6-Methoxy-1H-indazol-5-yl)-6-(2-methylpropyl)-5-(propan-2-yl)-7H-pyrrolo[2,3-d]pyrimidin-4-amine]
12 | Fc1cc2[nH]ncc2cc1Nc1ncnc2[nH]cc(Br)c12 [Example 15, 5-Bromo-N-(6-fluoro-1H-indazol-5-yl)-7H-pyrrolo[2,3-d]pyrimidin-4-amine]

IC50 [nM] | Structure (SMILES)
29 | CC(C)Oc1cc2[nH]ncc2cc1Nc1ncnc2[nH]c(Cl)cc12 [Example 40, 6-Chloro-N-[6-(propan-2-yloxy)-1H-indazol-5-yl]-7H-pyrrolo[2,3-d]pyrimidin-4-amine]
21 | COc1cc2[nH]ncc2cc1Nc1ncnc2[nH]c(Cl)cc12 [Example 41, 6-Chloro-N-(6-methoxy-1H-indazol-5-yl)-7H-pyrrolo[2,3-d]pyrimidin-4-amine]
31 | CN(C)C(=O)c1c[nH]c2ncnc(Nc3cc4cn[nH]c4cc3F)c12 [Example 16, 4-[(6-Fluoro-1H-indazol-5-yl)amino]-N, N-dimethyl-7H-pyrrolo[2,3-d]pyrimidine-5-carboxamide]
1 | COc1cc2[nH]ncc2cc1Nc1ncnc2[nH]cc(C#N)c12 [Example 35, 4-[(6-Methoxy-1H-indazol-5-yl)amino]-7H-pyrrolo[2,3-d]pyrimidine-5-carbonitrile]
211 | Cc1cc2[nH]ncc2cc1Nc1ncnc2[nH]cc(C(=O)N(C)C)c12 [Example 12, N,N-Dimethyl-4-[(6-methyl-1H-indazol-5-yl)amino]-7H-pyrrolo[2,3-d]pyrimidine-5-carboxamide]
2 | CC(C)Oc1cc2[nH]ncc2cc1Nc1ncnc2[nH]cc(C#N)c12 [Example 34, 4-[(6-Isopropoxy-1H-indazol-5-yl)amino]-7H-pyrrolo[2,3-d]pyrimidine-5-carbonitrile]
1 | COc1cc2[nH]ncc2cc1Nc1ncnc2[nH]cc(Br)c12 [Example 19, 5-Bromo-N-(6-methoxy-1H-indazol-5-yl)-7H-pyrrolo[2,3-d]pyrimidin-4-amine]
98 | Fc1cc2[nH]ncc2cc1Nc1ncnc2[nH]c(Br)cc12 [Example 55, 6-Bromo-N-(6-fluoro-1H-indazol-5-yl)-7H-pyrrolo[2,3-d]pyrimidin-4-amine]
27 | COc1cc2[nH]ncc2cc1Nc1ncnc2[nH]c(CCCO)cc12 [Example 23, 3-{4-[(6-Methoxy-1H-indazol-5-yl)amino]-7H-pyrrolo[2,3-d]pyrimidin-6-yl}propan-1-ol]
2 | Cc1ccc(S(=O)(=O)c2cc3c(Nc4cc5cn[nH]c5cc4OC(C)C)ncnc3[nH]2)cc1 [Example 53, 6-[(4-Methylphenyl)sulfonyl]-N-[6-(propan-2-yloxy)-1H-indazol-5-yl]-7H-pyrrolo[2,3-d]pyrimidin-4-amine]
13 | COc1cc2[nH]ncc2cc1Nc1ncnc2[nH]c(Br)cc12 [Example 20, 6-Bromo-N-(6-methoxy-1H-indazol-5-yl)-7H-pyrrolo[2,3-d]pyrimidin-4-amine]
11 | COc1cc2[nH]ncc2cc1Nc1ncnc2[nH]c(C#CCO)cc12 [Example 22, 3-{4-[(6-Methoxy-1H-indazol-5-yl)amino]-7H-pyrrolo[2,3-d]pyrimidin-6-yl}prop-2-yn-1-ol]
1 | CCOC(=O)c1[nH]c2ncnc(Nc3cc4cn[nH]c4cc3OC(C)C)c2c1Br [Example 63, Ethyl 5-bromo-4-{[6-(propan-2-yloxy)-1H-indazol-5-yl]amino}-7H-pyrrolo[2,3-d]pyrimidine-6-carboxylate]
1 | COc1cc2[nH]ncc2cc1Nc1ncnc2[nH]c(C(=O)N(C)C)c(Br)c12 [Example 59, 5-Bromo-4-[(6-methoxy-1H-indazol-5-yl)amino]-N,N-dimethyl-7H-pyrrolo[2,3-d]pyrimidine-6-carboxamide]
5 | COc1cc2[nH]ncc2cc1Nc1ncnc2[nH]cc(F)c12 [Example 3, 5-fluoro-N-(6-methoxy-1H-indazol-5-yl)-7H-pyrrolo[2,3-d]pyrimidin-4-amine]
1 | Cc1c[nH]c2ncnc(Nc3cc4cn[nH]c4cc3OC(C)C)c12 [Example 38, 5-Methyl-N-[6-(propan-2-yloxy)-1H-indazol-5-yl]-7H-pyrrolo[2,3-d]pyrimidin-4-amine]
